Measurements from patent publication US5593988A, “Therapeutic agent for osteoporosis and diazepine compound” (Yoshitomi Pharmaceutical Industries, Ltd., priority 1991, dated 1997).

These compounds were tested on bone resorption (parietal bone) (assay: Bone resorption-inhibitory activity (45Ca release from newborn mouse parietal bone, hPTH (1-34) stimulated, method of Raisz)). Conditions: 5 μM, Table 20, average of four pairs, read-out: bone resorption-inhibitory action, % against control.
Type: cell-based, ICR mouse
Source text: The method for determining the bone resorption-inhibitory activity of the Compound (I) and the results are shown in the following.
Bone resorption-inhibitory activity
The determination of the bone resorption-inhibitory activity basically followed the method of Raisz [J. Clin. Invest., vol. 44, pp. 103-116 (1965)].
A 1-2 days old new born ICR mouse was intraperitoneally administered with 1.5μ Ci ^45 Ca (CaCl2 solution of isotope of calcium) and parietal bone was asceptically removed the next day. The parietal bone was split into two along the central sature line and one of them was used as a control and the other was used for the experiment. The bone was preincubated in 0.5 ml of a BGJb medium (Fitton-Jackson modification, GIBCO Laboratories, U.S.A.) added with the test compound to a concentration of 5 μM or 20 μM and bovine serum albumin (1 mg/ml) at 37° C. for 2 days, and further incubated in the aforementioned medium containing 50 nM hPTH (1-34) for 3 days. After the incubation, the radioactivity of ^45 Ca in the medium and in the bone was measured and the ratio (%) of ^45 Ca released from the bone into the medium was calculated. [formula]
Using the bone obtained from the same mouse and treated in the same manner without the test compound as a control, the ratio (%) against the control was calculated according to the following equation. [formula]
The average of these values obtained from four pairs from each group was calculated.

Compared with CCc1cc2c(s1)-n1c(C)nnc1C(NC(=O)Nc1cccc(OC)c1)N=C2c1ccc(Cl)cc1 (stereo not shown) [compound 76], CCc1cc2c(s1)-n1c(C)nnc1C(NC(=O)Nc1ccccc1OC)N=C2c1ccc(Cl)cc1 (stereo not shown) [compound 90] is higher in inhibition at 5 µM: 29.5% for the first, 34.2% for the second.

Going from CCCCCCc1cc2c(s1)-n1c(C)nnc1C(NC(=O)Nc1cccc(C)c1)N=C2c1ccc(Cl)cc1 (stereo not shown) [compound 78] to CCCCc1cc2c(s1)-n1c(C)nnc1C(NC(=O)Nc1cccc(C)c1)N=C2c1ccc(Cl)cc1 (stereo not shown) [compound 98], the inhibition at 5 µM falls from 45.4% to 35%.

First: CCc1cc2c(s1)-n1c(C)nnc1C(NC(=S)Nc1ccccc1)N=C2c1ccccc1Cl (stereo not shown) [compound 93]
Second: CCc1cc2c(s1)-n1c(C)nnc1C(NC(=O)Nc1ccccc1)N=C2c1ccc(Cl)cc1 (stereo not shown) [compound 87]
The inhibition at 5 µM of the first is higher: 63.5% for the first, 31.6% for the second.

Going from CCc1cc2c(s1)-n1c(C3CCCCC3)nnc1C(NC(=O)Nc1ccccc1OC)N=C2c1ccccc1Cl (stereo not shown) [compound 100] to CCc1cc2c(s1)-n1c(C3CCCCC3)nnc1C(NC(=O)Nc1cccc(C)c1)N=C2c1ccccc1Cl (stereo not shown) [compound 84], the inhibition at 5 µM rises from 55.5% to 65.3%.

Going from CCc1cc2c(s1)-n1c(C)nnc1C(NC(=O)Nc1cccc(C)c1)N=C2c1ccc(C)cc1 (stereo not shown) [compound 86] to Cc1cccc(NC(=O)NC2N=C(c3ccccc3Cl)c3c(sc(C)c3C)-n3c(C)nnc32)c1 (stereo not shown) [compound 83], the inhibition at 5 µM rises from 30.3% to 35%.

Same assay, conditions: 20 μM, Table 20, average of four pairs, read-out: bone resorption-inhibitory action, % against control

Going from CCCCCCCCCCCc1nnc2n1-c1sc3c(c1C(c1ccccc1Cl)OC2)CCCC3 (stereo not shown) [compound 307] to CCCCCCCCCCCc1nnc2n1-c1sc(CC)cc1C(c1ccc(C)cc1)OC2 (stereo not shown) [compound 357], the inhibition at 20 µM falls from 42.4% to 24.7%.

Compared with Cc1nnc2n1-c1sc(CCc3ccc(CC(C)C)cc3)cc1C(c1ccccc1Cl)OC2 (stereo not shown) [compound 324], Cc1nnc2n1-c1sc(CCCc3ccc(CC(C)C)cc3)cc1C(c1ccccc1Cl)=NC2 [compound 11] is lower in inhibition at 20 µM: 33.1% for the first, 23.4% for the second.

Compared with CCc1cc2c(s1)-n1c(CCCc3ccc(CC(C)C)cc3)nnc1COC2c1ccc(Cl)cc1 (stereo not shown) [compound 330], CCCCCCCc1nnc2n1-c1sc(CC)cc1C(c1ccc(OC)cc1)OC2 (stereo not shown) [compound 348] is lower in inhibition at 20 µM: 35.6% for the first, 30.3% for the second.

Going from CCc1cc2c(s1)-n1c(C)nnc1C(NS(=O)(=O)c1ccc(C)cc1)N=C2c1ccc(Cl)cc1 (stereo not shown) [compound 254] to CCc1cc2c(s1)-n1c(C)nnc1C(CC(=O)Nc1ccccc1OC)N=C2c1ccc(Cl)cc1 (stereo not shown) [compound 250], the inhibition at 20 µM falls from 32.5% to 27.3%.

First: CC(C)Cc1ccc(CCc2cc3c(s2)-n2c(nnc2C(C)(C)C)C(C)N=C3c2ccccc2Cl)cc1 (stereo not shown) [compound 34]
Second: Cc1nnc2n1-c1sc(CCc3ccc(CC(C)C)cc3)cc1C(c1ccccc1Cl)=NC2CC(C)C (stereo not shown) [compound 43]
The inhibition at 20 µM of the first is lower: 15.5% for the first, 21.2% for the second.

First: CCc1cc2c(s1)-n1c(C)nnc1C(NC(=O)Nc1cccc(C)c1)N=C2c1ccccc1Cl (stereo not shown) [compound 51]
Second: CCc1cc2c(s1)-n1c(C)nnc1C(NC(=O)Cc1ccccc1)N=C2c1ccccc1Cl (stereo not shown) [compound 255]
The inhibition at 20 µM of the first is lower: 26.9% for the first, 54.3% for the second.

First: CC(C)Cc1ccc(CCc2cc3c(s2)N(CCN(C)C)C(=O)CN=C3c2ccccc2Cl)cc1 [compound 64]
Second: Cc1nnc2n1-c1sc(CCc3ccc(CC(C)C)cc3)cc1C(c1ccc(OCCN(C)C)cc1)=NC2 [compound 32]
The inhibition at 20 µM of the first is higher: 25.2% for the first, 16% for the second.

Going from Cc1nnc2n1-c1sc3c(c1C(c1ccccc1Cl)=NC2C)CC(C(=O)N1CCOCC1)C3 (stereo not shown) [compound 54] to CCCN(CCC)C(=O)C1Cc2sc3c(c2C1)C(c1ccccc1Cl)=NCc1nnc(C)n1-3 (stereo not shown) [compound 53], the inhibition at 20 µM rises from 31.7% to 73.5%.

Going from Cc1nnc2n1-c1sc(CCc3ccc(CC(C)C)cc3)cc1C(c1ccccc1Cl)=NC2Cc1ccccc1 (stereo not shown) [compound 46] to Cc1nnc2n1-c1sc(CCc3ccc(CC(C)C)cc3)cc1C(c1ccccc1Cl)=NC2c1ccccc1 (stereo not shown) [compound 44], the inhibition at 20 µM falls from 21.1% to 15.7%.

First: CCc1cc2c(s1)-n1c(C)nnc1C(NC(=O)c1cc3ccccc3[nH]1)N=C2c1ccccc1Cl (stereo not shown) [compound 48]
Second: Cc1nnc2n1-c1sc(CCC(=O)N3CCN(C(c4ccccc4)c4ccccc4)CC3)cc1C(c1ccccc1Cl)=NC2 [compound 36]
The inhibition at 20 µM of the first is higher: 25.7% for the first, 21.9% for the second.

Compound CCCCCCCCCCCc1nnc2n1-c1sc(CC)cc1C(c1ccc(O)cc1)OC2 (stereo not shown) [compound 302] has an inhibition at 20 µM of 22.4%.

Same assay, conditions: 20 μM, Table 21, average of four pairs, read-out: bone resorption-inhibitory action, % against control

First: CCCCCCCCCCCc1nnc2n1-c1ccccc1C(c1ccc(Cl)cc1)OC2 (stereo not shown) [compound 516]
Second: CCCCCCCCCCCc1nnc2n1-c1ccccc1C(c1ccc(Cl)cc1)NC2 (stereo not shown) [compound 515]
The inhibition at 20 µM of the first is lower: 22.4% for the first, 29.9% for the second.

Same assay, conditions: Table 20, read-out: IC50 (figures in parentheses), bone resorption-inhibitory action

CCc1cc2c(s1)-n1c(C)nnc1C(NC(=O)Nc1ccccc1OC)N=C2c1ccc(Cl)cc1 (stereo not shown) [compound 90] was tested, and the IC50 was 250 nM.

Same assay, conditions: read-out: IC50 (figures in parentheses), bone resorption-inhibitory action

Going from Cc1nnc2n1-c1sc(CCc3ccc(CC(C)C)cc3)cc1C(c1ccccc1Cl)=NC2C (stereo not shown) [compound 9] to COc1ccccc1NC(=O)NC1N=C(c2ccccc2)c2cc(Cl)ccc2-n2c(C)nnc21 (stereo not shown) [compound 532], the IC50 falls from 7500 nM to 930 nM (8.1-fold).

Same assay, conditions: read-out: bone resorption-inhibitory action, % against control

First: Cc1nnc2n1-c1sc(CCc3ccc(CC(C)C)cc3)cc1C(c1ccccc1Cl)=NC2C (stereo not shown) [compound 9]
Second: Cc1nnc2n1-c1sc(Cc3ccc(CC(C)C)cc3)cc1C(c1ccccc1Cl)=NC2 [compound 28]
The inhibition at 20 µM of the first is higher: 23.7% for the first, 16.5% for the second.

Compared with Cc1cccc(NC(=O)NCC2N=C(c3ccc(Cl)cc3)c3ccccc3-n3c(C)nnc32)c1 (stereo not shown) [compound 506], Cc1cccc(NC(=O)NC2N=C(c3ccc(Cl)cc3)c3ccccc3-n3c(C)nnc32)c1 (stereo not shown) [compound 503] is lower in inhibition at 20 µM: 32.5% for the first, 30.4% for the second.

First: Clc1ccc2c(c1)C(c1ccccc1Cl)=NCc1nccn1-2 [compound 70]
Second: CCc1cc2c(s1)-n1ccnc1CN=C2c1ccccc1Cl [compound 67]
The inhibition at 20 µM of the first is lower: 50.3% for the first, 55.3% for the second.

Going from Cc1cccc(NC(=O)OCC2N=C(c3ccccc3)c3ccccc3-n3c(C)nnc32)c1 (stereo not shown) [compound 510] to COc1ccccc1NC(=O)OCC1N=C(c2ccccc2)c2ccccc2-n2c(C)nnc21 (stereo not shown) [compound 509], the inhibition at 20 µM rises from 28.3% to 35%.

Going from CCOC(=O)C1(NC(=O)Nc2cccc(C)c2)N=C(c2ccc(Cl)cc2)c2ccccc2-n2c(C)nnc21 (stereo not shown) [compound 501] to Cc1cccc(N2C(=O)NC3(N=C(c4ccc(Cl)cc4)c4ccccc4-n4c(C)nnc43)C2=O)c1 (stereo not shown) [compound 531], the inhibition at 20 µM rises from 29.5% to 34.4%.

Compared with COc1ccccc1NC(=O)NC1N=C(c2ccc(Cl)cc2)c2ccccc2-n2c(C)nnc21 (stereo not shown) [compound 502], COc1ccccc1NC(=O)NCC1N=C(c2ccc(Cl)cc2)c2ccccc2-n2c(C)nnc21 (stereo not shown) [compound 505] is higher in inhibition at 20 µM: 31.8% for the first, 53.5% for the second.

Going from Cc1nnc2n1-c1ccccc1C(c1ccc(Cl)cc1)=NC2NC(=O)Nc1cccnc1 (stereo not shown) [compound 523] to Cc1nnc2n1-c1ccccc1C(c1ccc(Cl)cc1)=NC2NC(=O)NC(=O)c1ccccc1 (stereo not shown) [compound 525], the inhibition at 20 µM rises from 26.7% to 26.8%.

Going from Cc1nnc2n1-c1sc(CCCN3CCOCC3)cc1C(c1ccccc1Cl)=NC2C (stereo not shown) [compound 40] to Cc1nnc2n1-c1sc(CCC(=O)N3CCOCC3)cc1C(c1ccccc1Cl)=NC2 [compound 19], the inhibition at 20 µM rises from 32.8% to 61.7%.

Going from Cc1nnc2n1-c1sc(CCc3ccc(CC(C)C)cc3)cc1C(c1ccccc1)=NC2 [compound 1] to Cc1nnc2n1-c1sc(CCc3ccc(CC(C)C)cc3)cc1C(c1ccccc1F)=NC2 [compound 30], the inhibition at 20 µM falls from 30.7% to 20.6%.

Compared with Cc1nnc2n1-c1sc(CCc3ccc(CC(C)C)cc3)cc1C(c1cccc(Cl)c1)=NC2 [compound 5], Cc1nnc2n1-c1sc(CCc3ccc(CC(C)C)cc3)cc1C(c1ccc(O)cc1)=NC2 [compound 31] is lower in inhibition at 20 µM: 26.7% for the first, 26.4% for the second.

Compared with Cc1nnc2n1-c1ccccc1C(c1ccccc1)=NC2COC(=O)Cc1ccccc1 (stereo not shown) [compound 511], Cc1ccc(S(=O)(=O)OCC2N=C(c3ccccc3)c3ccccc3-n3c(C)nnc32)cc1 (stereo not shown) [compound 518] is higher in inhibition at 20 µM: 37.7% for the first, 45.4% for the second.

First: Cc1nnc2n1-c1sc3c(c1C(c1ccccc1Cl)=N[C@H]2C)CCN(C(=O)C1CC1)C3 [compound 52]
Second: CCc1cc2c(s1)-n1c(noc1=O)CN=C2c1ccccc1Cl [compound 66]
The inhibition at 20 µM of the first is lower: 29.9% for the first, 56.3% for the second.

Compared with CCCCCCc1cc2c(s1)-n1c(C)nnc1CN=C2c1ccccc1C [compound 22], CCCCCCCCCCc1cc2c(s1)-n1c(C)nnc1CN=C2c1ccccc1OC [compound 25] is lower in inhibition at 20 µM: 23.4% for the first, 17.5% for the second.

Compared with CCCCCCCCCCc1ccc2c(c1)-n1c(C)nnc1C(C)N=C2c1ccccc1 (stereo not shown) [compound 520], CCCCCCCCCCCCc1cc2c(s1)-n1c(C)nnc1CN=C2c1ccccc1Cl [compound 27] is lower in inhibition at 20 µM: 22.5% for the first, 17% for the second.

First: CC(C)Cc1ccc(CCc2cc3c(s2)-n2cnnc2CN=C3c2ccccc2Cl)cc1 [compound 6]
Second: CCCc1nnc2n1-c1sc(CCc3ccc(CC(C)C)cc3)cc1C(c1ccccc1Cl)=NC2 [compound 35]
The inhibition at 20 µM of the first is higher: 30.2% for the first, 20% for the second.

First: Cc1nnc2n1-c1ccccc1C(c1ccc(Cl)cc1)=NC2NC(=O)OCc1ccccc1 (stereo not shown) [compound 504]
Second: Cc1nnc2n1-c1ccccc1C(c1ccc(Cl)cc1)=NC2NS(=O)(=O)Cc1ccccc1 (stereo not shown) [compound 507]
The inhibition at 20 µM of the first is lower: 24.6% for the first, 35.6% for the second.

Compared with CCCCCCCCc1cc2c(s1)N(CCN(C)C)C(=O)CN=C2c1ccccc1Cl [compound 62], COc1ccccc1NC(=O)NC1N=C(c2ccccc2)c2cc(Cl)ccc2-n2c(C)nnc21 (stereo not shown) [compound 532] is higher in inhibition at 20 µM: 27.4% for the first, 28.1% for the second.
